From publication PMC9680032, “Conformationally Locked Carbocyclic Nucleosides Built on a 4′-Hydroxymethyl-3′-hydroxybicyclo[4.1.0]heptane Template. Stereoselective Synthesis and Antiviral Activity” (The Journal of Organic Chemistry, 2022) come the findings set out here.

In brackets after ≈: the same amount, converted by molar mass. A value given as a limit tells only on which side of the number the result lay.

The test system of data set [1] is Herpes simplex virus-1 (KOS). Kind of data set: microbe, parasite or virus in culture. The format is cell-based. The conditions noted are these: Human alphaherpesvirus 1, HEL, read-out: Antiviral EC50 Herpes simplex virus-1 (KOS).
Data set [2] deals with Herpes simplex virus-2 (G). Kind of data set: microbe, parasite or virus in culture. In kind it is cell-based. To be noted: Human alphaherpesvirus 2, HEL, read-out: Antiviral EC50 Herpes simplex virus-2 (G).
The test system of the next data set is Vaccinia virus. Briefly: microbe, parasite or virus in culture. In kind it is cell-based. To be noted: Orthopoxvirus vaccinia, HEL, read-out: Antiviral EC50 Vaccinia virus.
The next data set deals with Adeno virus-2. Briefly: organism not typed. In kind it is cell-based. To be noted: HEL, read-out: Antiviral EC50 Adeno virus-2.
A further data set has as its system Human Coronavirus (229E). Briefly: microbe, parasite or virus in culture. In kind it is cell-based. To be noted: for EC50: Human coronavirus 229E, HEL, read-out: Antiviral EC50 Human Coronavirus (229E).
In data set [3] the test system is Vesicular stomatitis virus. Kind of data set: microbe, parasite or virus in culture. The format is cell-based. To be noted: Vesicular stomatitis virus, HEp-2, read-out: Antiviral EC50 Vesicular stomatitis virus.
For data set [4], the system named is Coxsackie virus B4. Briefly: Antiviral CPE assay, Coxsackie virus B4 in HEp-2 cells. In kind it is cell-based. To be noted: Enterovirus B, B4, HEp-2.
Data set [5] relates to Respiratory syncytial virus. Kind of data set: Antiviral CPE assay, Respiratory syncytial virus in HEp-2 cells. The format is cell-based. To be noted: human respiratory syncytial virus, HEp-2.
Data set [6] is described as follows: Cytotoxicity in Vero cell cultures (MTS). The format is cell-based, African green monkey. To be noted: African green monkey, Vero cells (kidney epithelial cells), uninfected, MTS assay, read-out: Cytotoxixity CC50. Background: Tetrazolium dyes change colour on reduction, which living cells bring about.
A further data set has as its system Reo-virus-1. Briefly: Antiviral CPE assay, Reovirus-1 in Vero cells. The format is cell-based. The conditions noted are these: Vero.
The test system of a further data set is Sindbis virus. Kind of data set: Antiviral CPE assay, Sindbis virus in Vero cells. In kind it is cell-based. To be noted: Sindbis virus, Vero.
Data set [7] has as its system Coxsackie virus B4. Kind of data set: Antiviral CPE assay, Coxsackie virus B4 in Vero cells. The format is cell-based. To be noted: Enterovirus B, B4, Vero.
The next data set deals with Punta Toro virus. Kind of data set: Antiviral CPE assay, Punta Toro virus in Vero cells. The conditions noted are these: Punta Toro virus, Vero. The format is cell-based.
The next data set concerns Yellow Fever virus. Kind of data set: microbe, parasite or virus in culture. To be noted: Yellow fever virus, Vero, read-out: Antiviral EC50 Yellow Fever virus, Vero cell cultures. In kind it is cell-based.
For another data set, the system named is Zika virus. Briefly: Antiviral CPE assay, Zika virus in Vero cells. In kind it is cell-based. The conditions noted are these: Zika virus, Vero.
Data set [8] has as its system Influenza A virus A/Ned/378/05A (H1N1). Briefly: Antiviral CPE assay, Influenza A (H1N1) in MDCK cells. The format is cell-based. The conditions noted are these: Influenza A virus, H1N1, MDCK.
The test system of data set [9] is Influenza A virus A/HK/7/87 (H3N2). Briefly: Antiviral CPE assay, Influenza A (H3N2) in MDCK cells. The format is cell-based. The conditions noted are these: Influenza A virus, H3N2, MDCK.
Data set [10] relates to Influenza B virus B/Ned/537/05. Kind of data set: Antiviral CPE assay, Influenza B in MDCK cells. The format is cell-based. The conditions noted are these: Influenza B virus; MDCK cell cultures.
Data set [11] relates to Human immunodeficiency virus (IIIB). Briefly: Antiviral CPE assay, HIV-1 (IIIB) in MT-4 cells. In kind it is cell-based, human immunodeficiency virus type 1 (HIV-1). The conditions noted are these: Human immunodeficiency virus 1, IIIB, MT4.
The subject of data set [12] is Human immunodeficiency virus (ROD). Briefly: Antiviral CPE assay, HIV-2 (ROD) in MT-4 cells. The format is cell-based. To be noted: Human immunodeficiency virus 2, MT4.
A further data set can be described thus: in vitro. To be noted: dog.
Data set [13] is described as follows: Cytotoxicity in MT-4 cell cultures (MTS). To be noted: human, Cytotoxixity CC50, MT-4 cell cultures, MTS assay.
Data set [14] in a line: Cytotoxicity in HEp-2 cell cultures (MTS). The conditions noted are these: human.

For orientation: EC50 means the midpoint of the concentration-response curve. As to `Cc1cn(C2CC=C(CO)C3CC32)c(=O)[nH]c1=O` (stereo not drawn) [Compound 19, 1-[(1′S,2′S,6′R)-5′-(hydroxymethyl)-bicyclo[4.1.0]hept-4′-en-2′-yl]-5-methylpyrimidine-2,4(1H,3H)-dione], the half-maximal effective concentration (EC50) (in data set [1]; in data set [2]; in the data set on Vaccinia virus; in the data set on Adeno virus-2; in the data set on Human Coronavirus (229E); in [3]) was greater than 50 µg/mL throughout. For the same molecule, the concentration for a half-maximal effect (EC50) (in the data set on Coxsackie virus B4 [4]; in data set [5]; in the data set with Reo-virus-1; with Sindbis virus; in the data set with Coxsackie virus B4 [7]; in the data set on Punta Toro virus) was greater than 50 µg/mL each time. Also, the EC50 with Yellow Fever virus is greater than 50 µg/mL; in the data set with Zika virus, greater than 50 µg/mL; in [8], greater than 50 µg/mL; in data set [9] it was greater than 50 µg/mL; in data set [10], greater than 50 µg/mL; in data set [11], greater than 109 µg/mL. The molecule also came in with an EC50 in [12] greater than 109 µg/mL. In addition, the CC50 in data set [6] is greater than 50 µg/mL; in “in vitro” it was 18.6 µg/mL; in data set [13], 109 µg/mL (≈ 440 µM); in data set [14] it was greater than 50 µg/mL.

With `Nc1ccn([C@H]2CC[C@@H](CO)O2)c(=O)n1` [Zalcitabine, reference compound], in the data set on Adeno virus-2, the EC50 came out at 12 µM.

Consider `O=c1[nH]cnc2c1ncn2[C@H]1CC[C@@H](CO)O1` [Didanosine, reference compound], for which the 50% effective concentration (EC50) in [11] turned out to be 17.9 µg/mL (≈ 76 µM); in data set [12] it was 19.4 µg/mL (≈ 82.1 µM). This molecule also came in with a CC50 in data set [13] greater than 50 µg/mL.

Turning to `OCc1cn(C2CC(O)C(CO)C3CC32)nn1` [Compound 3e, (1R,2R,3R,5S,6S)-2-(Hydroxymethyl)-5-[4″-(hydroxymethyl)-1H-1″,2″,3″-triazol-1‴-yl]bicyclo[4.1.0]heptan-3-ol], the EC50 (in data set [1]; in data set [2]; in the data set on Vaccinia virus; in the data set on Adeno virus-2; in the data set on Human Coronavirus (229E); in [3]) was greater than 50 µg/mL throughout. For the same molecule, the EC50 (with Coxsackie virus B4 [4]; in [5]; with Reo-virus-1; in the data set with Sindbis virus; in the data set on Coxsackie virus B4 [7]; with Punta Toro virus) was greater than 50 µg/mL in each case. Further, the EC50 in the data set with Yellow Fever virus was greater than 50 µg/mL; with Zika virus it was greater than 50 µg/mL; in data set [8], greater than 50 µg/mL; in [9] it was greater than 50 µg/mL; in [10], greater than 50 µg/mL; in data set [11], greater than 116 µg/mL. In addition, in data set [12], the 50% effective concentration (EC50) is greater than 116 µg/mL. Besides, the CC50 in data set [6] is greater than 50 µg/mL; in the data set “in vitro” it was greater than 50 µg/mL; in data set [13], no less than 116 µg/mL; in data set [14], greater than 50 µg/mL.

Take `NC(=O)c1cn(C2CC(O)C(CO)C3CC32)nn1` (stereo not drawn) [Compound 3a, 1-[(1′S,2′S,4′R,5′R,6′R)-4′-Hydroxy-5′-(hydroxymethyl)bicyclo[4.1.0]hept-2′-yl]-1H-1,2,3-triazole-4-carboxamide]: the 50% effective concentration (EC50) (in data set [1]; in [2]; with Vaccinia virus; in the data set on Adeno virus-2; in the data set on Human Coronavirus (229E); in [3]) was greater than 50 µg/mL each time. Besides, the EC50 (in the data set on Coxsackie virus B4 [4]; in data set [5]; with Reo-virus-1; with Sindbis virus; with Coxsackie virus B4 [7]; in the data set with Punta Toro virus) was greater than 50 µg/mL throughout. Further, the EC50 with Yellow Fever virus was greater than 50 µg/mL; with Zika virus, greater than 50 µg/mL; in data set [8], greater than 50 µg/mL; in data set [9], greater than 50 µg/mL; in data set [10], greater than 50 µg/mL; in [11] it was greater than 125 µg/mL. Also, the EC50 in data set [12] was greater than 125 µg/mL. The CC50 in [6] is greater than 50 µg/mL; in “in vitro” it was greater than 50 µg/mL; in [13], greater than 125 µg/mL; in [14] it was greater than 50 µg/mL.

Consider `NC(=O)c1ncn([C@@H]2O[C@H](CO)[C@@H](O)[C@H]2O)n1` [Ribavirin, reference compound], for which the concentration giving a half-maximal response (EC50) in [3] was 149 µM; with Coxsackie virus B4 [4] it was 117 µM; in data set [5], 6.7 µM; in data set [8], 7.4 µM; in data set [9] it was 6.4 µM; in data set [10] it was 9.3 µM. The CC50 in “in vitro” is greater than 100 µM; in data set [14], greater than 250 µM.

As for `COc1c(C)c2c(c(O)c1C/C=C(\C)CCC(=O)O)C(=O)OC2` [Mycophenolic acid, reference compound], the CC50 in data set [6] was greater than 100 µM. For the same molecule, the EC50 with Reo-virus-1 was 7.1 µM; with Sindbis virus it was 3.6 µM; in the data set on Coxsackie virus B4 [7], greater than 100 µM; in the data set on Punta Toro virus, greater than 100 µM; in the data set with Yellow Fever virus, 2.6 µM; in the data set with Zika virus it was 0.2 µM.

As for `OCC1C(O)CC(n2cc(-c3ccccc3)nn2)C2CC12` [Compound 3c, (1R,2R,3R,5S,6S)-2-(Hydroxymethyl)-5-(4″-phenyl-1H-1″,2″,3″-triazol-1-yl)bicyclo[4.1.0]heptan-3-ol], the 50% effective concentration (EC50) (in data set [1]; in data set [2]; in the data set on Vaccinia virus; with Adeno virus-2; in the data set on Human Coronavirus (229E); in [3]) was greater than 50 µg/mL throughout. The 50% effective concentration (EC50) (in the data set on Coxsackie virus B4 [4]; in data set [5]; in the data set on Reo-virus-1; in the data set on Sindbis virus; in the data set with Coxsackie virus B4 [7]; in the data set on Punta Toro virus) was greater than 50 µg/mL in each case. For the same molecule, the 50% effective concentration (EC50) with Yellow Fever virus was greater than 50 µg/mL; in the data set on Zika virus, greater than 50 µg/mL; in data set [8] it was greater than 50 µg/mL; in data set [9], greater than 50 µg/mL; in data set [10], greater than 50 µg/mL; in [11], greater than 96.2 µg/mL. Also, the 50% effective concentration (EC50) in data set [12] is greater than 96.2 µg/mL. Further, the CC50 in data set [6] was greater than 50 µg/mL; in “in vitro”, 20.4 µg/mL; in data set [13], 96.2 µg/mL (≈ 337 µM); in [14], greater than 50 µg/mL.

`CC(=O)N[C@H]1[C@H]([C@H](O)[C@H](O)CO)OC(C(=O)O)=C[C@@H]1N=C(N)N` [Zanamivir, reference compound]: the EC50 in data set [8] was found to be 0.9 µM; in data set [9], 4.9 µM; in data set [10], 1.4 µM. In addition, the CC50 in the data set “in vitro” is greater than 100 µM.

With `Cc1cn([C@H]2C[C@H](N=[N+]=[N-])[C@@H](CO)O2)c(=O)[nH]c1=O` [Zidovudine, reference compound], the EC50 in data set [11] and in data set [12] was 0.002 µg/mL (≈ 0.00748 µM) throughout. The molecule also displayed a CC50 in data set [13] greater than 2 µg/mL.

Consider `Cc1cn([C@H]2C[C@H](F)[C@@H](CO)O2)c(=O)[nH]c1=O` [Alovudine, reference compound], for which, in the data set with Adeno virus-2, the EC50 turned out to be 0.4 µM.

With `CC(N)C12CC3CC(CC(C3)C1)C2` (stereo not shown) [Rimantadine, reference compound], the EC50 is 88.8 µM in data set [8], 0.06 µM in data set [9] and greater than 200 µM in data set [10]. In addition, in the data set “in vitro”, the CC50 was greater than 200 µM.

B1: UDA: reference agent against Human Coronavirus (229E) in Table S1 (protein, UniProt P11218 24-372, looked up)
Lectin/endochitinase 1: QRCGSQGGGGTCPALWCCSIWGWCGDSEPYCGRTCENKCWSGERSDHRCGAAVGNPPCGQDRCCSVHGWCGGGNDYCSGSKCQYRCSSSVRGPRVALSGNSTANSIGNVVVTEPLFDQMFSHRKDCPSQGFYSYHSFLVAAESFPAFGTIGDVATRKREVAAFLAHISQATSGERSDVENPHAWGLCHINTTTVTENDFCTSSDWPCAAGKKYSPRGPIQLTHNFNYGLAGQAIGEDLIQNPDLVEKDPIISFKTALWFWMSQHDNKPSCHDIVLNANSAANRIPNKGVIGNIISRAFGHDDFAVRSSSIGFYKRYCDMLGVSYGHDLKYWFDNTPSSEFQRIQMRVAA
For the molecule B1, the “Antiviral EC50 Human Coronavirus (229E)” value in the data set on Human Coronavirus (229E) (HEL cell cultures) turned out to be 1.2 µg/mL.
